# Source: PubChem BioAssay (NCI)
#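 Grown in 96-well plates, cells were treated for 48 hours with each compound at five concentrations. Insufficient inhibition: endpoint recorded as highest concentration tested. TGI: concentration producing complete growth inhibition.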
# How the values were obtained:
# Test in all cases: inhibition of tumour cell growth, NCI panel, 48 h
# [1] = tested on: NCI-H522 lung
# [2] = tested on: LXFL 529 NSCLC
# [3] = tested on: UACC-257 melanoma
# [4] = tested on: IGROV1 ovarian
# [5] = tested on: SNB-19 CNS
# [6] = tested on: SN12C renal
# [7] = tested on: HCT-116 colon
# [8] = tested on: 786-0 renal
# [9] = tested on: LOX IMVI melanoma
# [10] = tested on: MALME-3M melanoma
# [11] = tested on: SR leukemia
# [12] = tested on: OVCAR-3 ovarian
# [13] = tested on: OVCAR-4 ovarian
# [14] = tested on: KM12 colon
# [15] = tested on: DMS 114 small cell lung
# [16] = tested on: A498 renal
# [17] = tested on: M14 melanoma
# [18] = tested on: SK-OV-3 ovarian
# [19] = tested on: HCT-15 colon
# [20] = tested on: OVCAR-5 ovarian
# [21] = tested on: TK-10 renal
# [22] = tested on: A549 NSCLC
# [23] = tested on: M19-MEL melanoma
# [24] = tested on: SK-MEL-5 melanoma
# [25] = tested on: EKVX NSCLC
# [26] = tested on: HT29 colon
# [27] = tested on: ACHN renal
# [28] = tested on: K-562 leukemia
# [29] = tested on: COLO 205 colon
# [30] = tested on: MOLT-4 leukemia
# [31] = tested on: HOP-92 NSCLC
# [32] = tested on: SNB-75 CNS
# [33] = tested on: UACC-62 melanoma
# [34] = tested on: SW-620 colon
# [35] = tested on: SNB-78 CNS
# [36] = tested on: U251 CNS
# [37] = tested on: RXF-631 renal
# [38] = tested on: OVCAR-8 ovarian
# [39] = tested on: HOP-18 NSCLC
# [40] = tested on: UO-31 renal
# [41] = tested on: HCC-2998 colon
# [42] = tested on: CCRF-CEM leukemia
# [43] = tested on: SF-268 CNS
# [44] = tested on: CAKI-1 renal
# [45] = tested on: NCI-H460 lung
# [46] = tested on: RPMI-8226 leukemia
# [47] = tested on: SK-MEL-28 melanoma
# [48] = tested on: HL-60(TB) leukemia
# [49] = tested on: DMS 273 small cell lung
# [50] = tested on: SF-295 CNS
# [51] = tested on: KM20L2 colon
# [52] = tested on: NCI-H226 lung
# [53] = tested on: SK-MEL-2 melanoma
# [54] = tested on: NCI-H23 lung
# [55] = tested on: DLD-1 colon
# [56] = tested on: XF 498 CNS
# [57] = tested on: SF-539 CNS
# [58] = tested on: HOP-62 NSCLC
smiles,measurement,setting,value
COC(=O)C1Cc2c(n(C)c3ccccc23)C(c2ccccc2)N1 (stereo not given),TGI,[1],93.1 µM
same,TGI,[2],> 100 µM
same,TGI,[3],32 µM
same,TGI,[4],> 100 µM
same,TGI,[5],> 100 µM
same,TGI,[6],> 100 µM
same,TGI,[7],> 100 µM
same,TGI,[8],> 100 µM
same,TGI,[9],> 100 µM
same,TGI,[10],> 100 µM
same,TGI,[11],> 100 µM
same,TGI,[12],> 100 µM
same,TGI,[13],> 100 µM
same,TGI,[14],> 100 µM
same,TGI,[15],> 100 µM
same,TGI,[16],> 100 µM
same,TGI,[17],> 100 µM
same,TGI,[18],> 100 µM
same,TGI,[19],> 100 µM
same,TGI,[20],> 100 µM
same,TGI,[21],> 100 µM
same,TGI,[22],> 100 µM
same,TGI,[23],> 100 µM
same,TGI,[24],93 µM
same,TGI,[25],> 100 µM
same,TGI,[26],> 100 µM
same,TGI,[27],> 100 µM
same,TGI,[28],> 100 µM
same,TGI,[29],> 100 µM
same,TGI,[30],> 100 µM
same,TGI,[31],> 100 µM
same,TGI,[32],> 100 µM
same,TGI,[33],> 100 µM
same,TGI,[34],> 100 µM
same,TGI,[35],> 100 µM
same,TGI,[36],> 100 µM
same,TGI,[37],> 100 µM
same,TGI,[38],> 100 µM
same,TGI,[39],> 100 µM
same,TGI,[40],> 100 µM
same,TGI,[41],> 100 µM
same,TGI,[42],> 100 µM
same,TGI,[43],> 100 µM
same,TGI,[44],> 100 µM
same,TGI,[45],> 100 µM
same,TGI,[46],> 100 µM
same,TGI,[47],> 100 µM
same,TGI,[48],48 µM
same,TGI,[49],> 100 µM
same,TGI,[50],> 100 µM
same,TGI,[51],> 100 µM
same,TGI,[52],> 100 µM
same,TGI,[53],> 100 µM
same,TGI,[54],> 100 µM
CN(C)CCN1N=Nc2cccc3cccc1c23,TGI,[1],> 100 µM
same,TGI,[2],> 100 µM
same,TGI,[3],> 100 µM
same,TGI,[4],> 100 µM
same,TGI,[5],> 100 µM
same,TGI,[6],> 100 µM
same,TGI,[7],> 100 µM
same,TGI,[55],> 100 µM
same,TGI,[8],> 100 µM
same,TGI,[9],> 100 µM
same,TGI,[10],> 100 µM
same,TGI,[11],40.2 µM
same,TGI,[12],> 100 µM
same,TGI,[13],> 100 µM
same,TGI,[14],> 100 µM
same,TGI,[15],> 100 µM
same,TGI,[16],> 100 µM
same,TGI,[17],> 100 µM
same,TGI,[18],> 100 µM
same,TGI,[19],> 100 µM
same,TGI,[20],> 100 µM
same,TGI,[21],> 100 µM
same,TGI,[22],> 100 µM
same,TGI,[24],> 100 µM
same,TGI,[25],> 100 µM
same,TGI,[56],> 100 µM
same,TGI,[26],> 100 µM
same,TGI,[27],> 100 µM
same,TGI,[28],> 100 µM
same,TGI,[29],> 100 µM
same,TGI,[30],> 87.3 µM
same,TGI,[31],> 100 µM
same,TGI,[32],> 100 µM
same,TGI,[33],> 100 µM
same,TGI,[57],> 100 µM
same,TGI,[34],> 53.6 µM
same,TGI,[36],> 100 µM
same,TGI,[37],> 100 µM
same,TGI,[38],> 100 µM
same,TGI,[39],> 100 µM
same,TGI,[40],> 100 µM
same,TGI,[41],> 100 µM
same,TGI,[42],> 78.8 µM
same,TGI,[43],> 100 µM
same,TGI,[44],> 100 µM
same,TGI,[45],> 100 µM
same,TGI,[46],> 64.3 µM
same,TGI,[47],> 100 µM
same,TGI,[48],> 70.8 µM
same,TGI,[49],87.7 µM
same,TGI,[50],> 100 µM
same,TGI,[58],> 100 µM
same,TGI,[51],> 100 µM
same,TGI,[52],> 100 µM
same,TGI,[53],> 100 µM
same,TGI,[54],> 100 µM
